The source of these data is patent EP0153858A2, “The therapeutic use of prostaglandins” (THE UPJOHN COMPANY, priority 1984, dated 1985).

For assay [1], the system named is beagles suffering from hemorrhagic shock. The following applies: infusion; cited from earlier work.
For a further assay, the system named is patients with ARDS. The assay is described as follows: Double blind randomized study of PGE1 versus placebo in ARDS patients; survival, and mortality by creatinine/bilirubin level (Example 2). Type of assay: in vivo, human. The following applies: 30 ng/kg/min for 7 days; 17 out of 26 patients survived. Here is the method: Fifty patients with ARDS were randomized to receive PGE1 (30 ng/kg/min for 7 days) or placebo (equivalent volumes of saline and time) in a double blind study. For entry, patients must have required mechanical ventilation with an inspired oxygen concentration of 40% or more and a positive end respiratory pressure of 5 em of water or more. Most of the patients (70%) were septic. 17 out of 26 patients who had received PGE1 survived (65% survival) while only 7 out of 24 patients who had received placebo survived (29% survival).
The relation between the bilirubin and creatinine levels and the mortality of the patients enrolled in this study is depicted in Table 2. […] Creatinine and bilirubin levels are indicative of kidney and liver function, respectively. The data thus indicate that PGE1 prevents severe kidney and liver damage, and greatly decreases the risk of death, for patients highly susceptible to kidney failure, liver failure, and/or death as a result of trauma, sepsis, shock, and similar catastrophic events.

In assay [2] the test system is endotoxin-induced lung injury. Particulars: infusion of the prostaglandin; cited from earlier work.
The test system of assay [3] is microvascular permeability. The following applies: sheep; cited from earlier work.
Assay [4] concerns patients suffering from ARDS. Kind of assay: Prospective randomized double blind placebo controlled study of PGE1 infusion in ARDS patients (Example 1). The following applies: 30 days after discontinuing the infusion; i.v. 5 ng/kg/min increased to 30 ng/kg/min, for 7 days or until extubated; 21 patients. The assay is classed as in vivo, human. As for the experimental part: An intravenous solution was prepared by mixing one 5 ml ampoule of Prostin VR Pediatric Sterile Solution containing 2.5 mg PGE1 active drug with one liter of D5W or Normal Saline. Dosages of this solution or of a control solution containing only vehicle but no PGE1 were administered to 41 patients suffering from ARDS in a prospective randomized double blind placebo controlled study. PGE1 or the control solution was started at a dose of 5 ng/kg/min and then increased 5 ng/kg/min every 30 minutes until a rate of 30 ng/kg/min was reached.
This dosage was continued for 7 days or until the patient was extubated, whichever came sooner. The survival rate 30 days after discontinuing the infusion was as follows: […]

Assay [5] concerns patients with severe postoperative ARDS. Particulars: cited from earlier work.
In a further assay the test system is trauma. Particulars: reported experimentally; cited from earlier work.

In the case of `CCCCC[C@H](O)/C=C/[C@H]1[C@H](O)CC(=O)[C@@H]1CCCCCCC(=O)O` [PGE1, Prostaglandin E1], the survival rate entry in assay [1] is given as “improved”. In the assay with patients with ARDS, this compound yielded a survival of 65%. The “lung and systemic injury associated with endotoxin infusion” value in assay [2] was “decreased”. Also, the “increase of microvascular permeability” value in assay [3] is on record as “Reversal”. For the same compound, the “Survival Rate (%)” value in assay [4] is listed as 71.4%. Also, the “lung function of each patient” value in assay [5] (5 patients with severe postoperative ARDS) is listed as “improved”. Moreover, in assay [5] (of 5 patients with severe postoperative ARDS), the “patients died of associated problems, including vital organ failure” value is “three”.

As for `CCCCC[C@H](O)/C=C/[C@@H]1[C@H]2C/C(=C/CCCC(=O)O)O[C@H]2C[C@H]1O` [PGI2, prostacyclin], the “lung and systemic injury associated with endotoxin infusion” value in assay [2] is “decreased”. Also, the “survival rate after trauma” value in the assay with trauma is on record as “beneficial in increasing the survival rate”.
